Measurements published in ChEMBL document CHEMBL4020724, “Selective HDAC inhibitors with potent oral activity against leukemia and colorectal cancer: Design, structure-activity relationship and anti-tumor activity study” (Eur J Med Chem, 2017).
The source made the active and inactive calls. The rule behind the calls is not given here.

Key:
[1] = molecular target: Histone deacetylase 2 (Homo sapiens, UniProt Q92769); test: Inhibition of HDAC2 (unknown origin) using Boc-Lys (acetyl)-AMC as substrate incubated for 10 mins followed by substrate addition measured after 30 mins by fluorescence assay
[2] = molecular target: Histone deacetylase 1 (Homo sapiens, UniProt Q13547); test: Inhibition of HDAC1 (unknown origin) using Boc-Lys (acetyl)-AMC as substrate incubated for 10 mins followed by substrate addition measured after 30 mins by fluorescence assay
[3] = tested on: HL-60; test: cells; details: Homo sapiens, HL-60, 48 h
Description: Antiproliferative activity against human HL60 cells after 48 hrs by MTT assay

[4] = Inhibition of class 1 HDAC in human HL60 cells using Boc-Ac-Lys-AMC as substrate incubated for 3 hrs followed by substrate addition measured after 3 hrs by fluorescence assay; format: cell-based; details: HL-60, 3 h
[5] = molecular target: Histone deacetylase 3 (Homo sapiens, UniProt O15379); test: Inhibition of HDAC3 (unknown origin) using Boc-Lys (acetyl)-AMC as substrate incubated for 10 mins followed by substrate addition measured after 30 mins by fluorescence assay
[6] = cells; details: Homo sapiens, ES-2, 48 h
Description: Antiproliferative activity against human ES2 cells after 48 hrs by MTT assay

[7] = tested on: U-937; test: cells; details: Homo sapiens, U-937, 48 h
Description: Antiproliferative activity against human U937 cells after 48 hrs by MTT assay

[8] = tested on: HCT-116; test: cells; details: Homo sapiens, HCT-116, 48 h
[9] = tested on: U-266; test: Antiproliferative activity against human U266 cells after 48 hrs by MTT assay; format: functional, cell-based; details: U-266, 48 h
[10] = tested on: HEL; test: Antiproliferative activity against HEL cells after 48 hrs by MTT assay; format: functional, cell-based; details: Homo sapiens
[11] = molecular target: T1, Histone deacetylase (HDAC1 and HDAC2) (Homo sapiens) (UniProt Q13547+Q92769); test: Inhibition of HDAC1/2 in human HL60 cells assessed as increase in acetylated histone H3 level at 1 to 5 uM after 48 hrs by Western blot analysis; format: cell-based
[12] = tested on: K562; test: cells; details: Homo sapiens, K562, 48 h
[13] = molecular target: T1, Histone deacetylase (HDAC1 and HDAC2) (Homo sapiens); test: Inhibition of HDAC1/2 in human HL60 cells assessed as increase in acetylated histone H4 level at 1 to 5 uM after 48 hrs by Western blot analysis; format: cell-based
[14] = tested on: HL-60; test: Induction of apoptosis in human HL60 cells assessed as decrease in procaspase-3 level at 1 to 5 uM after 48 hrs by Western blot analysis; format: functional, cell-based
[15] = tested on: HL-60; test: Induction of apoptosis in human HL60 cells assessed as increase in cleaved caspase-3 level at 1 to 5 uM after 48 hrs by Western blot analysis; format: functional, cell-based
[16] = tested on: HL-60; test: Induction of apoptosis in human HL60 cells assessed as increase in cleaved PARP level at 1 to 5 uM after 48 hrs by Western blot analysis; format: functional, cell-based
[17] = molecular target: T2, Protein deacetylase HDAC6 (Homo sapiens, UniProt Q9UBN7); test: Inhibition of HDAC6 (unknown origin) using Boc-Lys (acetyl)-AMC as substrate incubated for 10 mins followed by substrate addition measured after 30 mins by fluorescence assay
T2 sequence (Q9UBN7 whole entry): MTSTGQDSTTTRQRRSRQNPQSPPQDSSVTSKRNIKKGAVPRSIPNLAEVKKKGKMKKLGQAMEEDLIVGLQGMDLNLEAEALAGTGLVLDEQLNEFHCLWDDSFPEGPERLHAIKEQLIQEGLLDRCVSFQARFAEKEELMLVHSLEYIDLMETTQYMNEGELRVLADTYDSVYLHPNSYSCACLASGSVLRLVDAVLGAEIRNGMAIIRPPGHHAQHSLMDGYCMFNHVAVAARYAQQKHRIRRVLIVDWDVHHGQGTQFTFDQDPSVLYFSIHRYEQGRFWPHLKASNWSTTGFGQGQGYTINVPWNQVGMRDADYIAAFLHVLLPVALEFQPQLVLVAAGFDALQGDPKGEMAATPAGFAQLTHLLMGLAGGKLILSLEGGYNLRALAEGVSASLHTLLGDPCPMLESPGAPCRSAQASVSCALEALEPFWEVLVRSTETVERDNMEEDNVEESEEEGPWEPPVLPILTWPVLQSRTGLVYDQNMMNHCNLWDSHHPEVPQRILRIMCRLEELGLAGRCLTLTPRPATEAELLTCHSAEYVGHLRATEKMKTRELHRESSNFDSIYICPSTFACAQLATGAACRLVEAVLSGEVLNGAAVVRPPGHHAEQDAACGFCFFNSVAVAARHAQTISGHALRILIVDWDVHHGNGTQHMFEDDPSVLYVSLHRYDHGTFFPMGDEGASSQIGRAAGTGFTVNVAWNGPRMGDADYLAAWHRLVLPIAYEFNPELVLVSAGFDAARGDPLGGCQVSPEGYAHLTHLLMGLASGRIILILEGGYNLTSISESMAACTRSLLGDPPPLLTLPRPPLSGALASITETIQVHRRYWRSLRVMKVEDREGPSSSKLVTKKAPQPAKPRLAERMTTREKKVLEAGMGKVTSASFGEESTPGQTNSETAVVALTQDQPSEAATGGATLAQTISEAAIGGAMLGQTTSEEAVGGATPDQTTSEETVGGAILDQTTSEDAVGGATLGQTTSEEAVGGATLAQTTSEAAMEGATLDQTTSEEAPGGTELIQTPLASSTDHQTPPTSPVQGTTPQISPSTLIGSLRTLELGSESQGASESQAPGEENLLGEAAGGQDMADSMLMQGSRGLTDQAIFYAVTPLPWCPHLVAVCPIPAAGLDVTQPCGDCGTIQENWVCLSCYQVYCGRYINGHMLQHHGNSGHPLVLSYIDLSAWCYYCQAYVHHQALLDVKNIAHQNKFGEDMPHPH

[18] = molecular target: Histone deacetylase 4 (Homo sapiens, UniProt P56524); test: Inhibition of HDAC4 (unknown origin) using Boc-Lys (triflouroacetyl)-AMC as substrate incubated for 10 mins followed by substrate addition measured after 30 mins by fluorescence assay
[19] = molecular target: T3, Histone deacetylase 8 (Homo sapiens, UniProt Q9BY41); test: Inhibition of HDAC8 (unknown origin) using Boc-Lys (acetyl)-AMC as substrate incubated for 10 mins followed by substrate addition measured after 30 mins by fluorescence assay
T3 sequence (Q9BY41 whole entry): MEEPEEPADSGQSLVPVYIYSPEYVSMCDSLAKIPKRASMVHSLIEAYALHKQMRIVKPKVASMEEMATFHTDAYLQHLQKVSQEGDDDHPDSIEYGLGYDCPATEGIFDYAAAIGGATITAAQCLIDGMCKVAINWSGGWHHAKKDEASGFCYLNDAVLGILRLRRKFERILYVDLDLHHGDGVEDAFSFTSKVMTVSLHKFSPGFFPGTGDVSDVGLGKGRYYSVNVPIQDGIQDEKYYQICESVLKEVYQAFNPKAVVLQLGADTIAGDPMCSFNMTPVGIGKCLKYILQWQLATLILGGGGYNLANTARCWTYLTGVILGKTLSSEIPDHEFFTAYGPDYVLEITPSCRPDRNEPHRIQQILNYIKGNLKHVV

[20] = tested on: Mus musculus; test: Toxicity in BALB/c nude mouse xenografted with human HCT116 cells assessed as body weight at 100 mg/kg/day administered via oral gavage for 16 days (reference value: 19.91 +/- 1.26 g); format: organism-based; details: in vivo, 384 h

Chain of Histone deacetylase 2 (Q92769 whole entry): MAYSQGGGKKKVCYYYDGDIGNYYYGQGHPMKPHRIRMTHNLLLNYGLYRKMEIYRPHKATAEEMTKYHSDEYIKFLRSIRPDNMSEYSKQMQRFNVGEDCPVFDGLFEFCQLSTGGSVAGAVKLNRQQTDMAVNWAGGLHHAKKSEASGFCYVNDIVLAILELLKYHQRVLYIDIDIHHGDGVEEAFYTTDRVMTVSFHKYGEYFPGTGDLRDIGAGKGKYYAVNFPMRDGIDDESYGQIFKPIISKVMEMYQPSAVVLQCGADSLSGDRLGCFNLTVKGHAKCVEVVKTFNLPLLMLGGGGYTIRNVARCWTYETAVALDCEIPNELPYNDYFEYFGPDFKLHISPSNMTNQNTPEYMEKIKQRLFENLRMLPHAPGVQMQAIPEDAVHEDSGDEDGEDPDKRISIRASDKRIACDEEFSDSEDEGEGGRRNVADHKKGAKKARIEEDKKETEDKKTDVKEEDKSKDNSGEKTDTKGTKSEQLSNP
Chain of Histone deacetylase 1 (Q13547 whole entry): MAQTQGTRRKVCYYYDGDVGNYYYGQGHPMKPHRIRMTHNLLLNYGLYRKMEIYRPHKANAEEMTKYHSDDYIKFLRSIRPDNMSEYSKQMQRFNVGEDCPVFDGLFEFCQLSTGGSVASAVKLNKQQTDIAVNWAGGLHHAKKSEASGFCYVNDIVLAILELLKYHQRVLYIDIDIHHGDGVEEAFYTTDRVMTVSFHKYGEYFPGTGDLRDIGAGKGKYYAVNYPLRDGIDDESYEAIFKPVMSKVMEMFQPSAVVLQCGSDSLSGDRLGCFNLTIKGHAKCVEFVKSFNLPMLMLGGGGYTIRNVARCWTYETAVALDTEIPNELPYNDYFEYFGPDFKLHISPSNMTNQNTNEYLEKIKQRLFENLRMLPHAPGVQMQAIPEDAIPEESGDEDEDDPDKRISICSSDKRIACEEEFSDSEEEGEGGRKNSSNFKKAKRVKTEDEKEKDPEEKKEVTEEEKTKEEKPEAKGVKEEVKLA
Chain of Histone deacetylase 3 (O15379 whole entry): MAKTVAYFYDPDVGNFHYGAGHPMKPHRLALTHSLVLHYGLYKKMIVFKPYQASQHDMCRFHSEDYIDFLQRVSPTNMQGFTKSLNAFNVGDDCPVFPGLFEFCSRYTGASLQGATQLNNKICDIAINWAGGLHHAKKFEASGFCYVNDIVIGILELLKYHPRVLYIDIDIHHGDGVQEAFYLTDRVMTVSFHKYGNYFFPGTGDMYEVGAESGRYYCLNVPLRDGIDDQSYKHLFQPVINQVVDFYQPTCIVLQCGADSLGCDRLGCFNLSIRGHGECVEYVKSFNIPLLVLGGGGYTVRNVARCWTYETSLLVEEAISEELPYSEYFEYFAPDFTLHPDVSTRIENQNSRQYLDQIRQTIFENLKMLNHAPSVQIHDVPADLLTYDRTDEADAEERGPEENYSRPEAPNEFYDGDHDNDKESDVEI
T1 sequence (Q13547 whole entry, looked up): as the sequence (Q13547 whole entry) above
T1 sequence (Q92769 whole entry, looked up): as the sequence (Q92769 whole entry) above
Chain of Histone deacetylase 4 (P56524 whole entry): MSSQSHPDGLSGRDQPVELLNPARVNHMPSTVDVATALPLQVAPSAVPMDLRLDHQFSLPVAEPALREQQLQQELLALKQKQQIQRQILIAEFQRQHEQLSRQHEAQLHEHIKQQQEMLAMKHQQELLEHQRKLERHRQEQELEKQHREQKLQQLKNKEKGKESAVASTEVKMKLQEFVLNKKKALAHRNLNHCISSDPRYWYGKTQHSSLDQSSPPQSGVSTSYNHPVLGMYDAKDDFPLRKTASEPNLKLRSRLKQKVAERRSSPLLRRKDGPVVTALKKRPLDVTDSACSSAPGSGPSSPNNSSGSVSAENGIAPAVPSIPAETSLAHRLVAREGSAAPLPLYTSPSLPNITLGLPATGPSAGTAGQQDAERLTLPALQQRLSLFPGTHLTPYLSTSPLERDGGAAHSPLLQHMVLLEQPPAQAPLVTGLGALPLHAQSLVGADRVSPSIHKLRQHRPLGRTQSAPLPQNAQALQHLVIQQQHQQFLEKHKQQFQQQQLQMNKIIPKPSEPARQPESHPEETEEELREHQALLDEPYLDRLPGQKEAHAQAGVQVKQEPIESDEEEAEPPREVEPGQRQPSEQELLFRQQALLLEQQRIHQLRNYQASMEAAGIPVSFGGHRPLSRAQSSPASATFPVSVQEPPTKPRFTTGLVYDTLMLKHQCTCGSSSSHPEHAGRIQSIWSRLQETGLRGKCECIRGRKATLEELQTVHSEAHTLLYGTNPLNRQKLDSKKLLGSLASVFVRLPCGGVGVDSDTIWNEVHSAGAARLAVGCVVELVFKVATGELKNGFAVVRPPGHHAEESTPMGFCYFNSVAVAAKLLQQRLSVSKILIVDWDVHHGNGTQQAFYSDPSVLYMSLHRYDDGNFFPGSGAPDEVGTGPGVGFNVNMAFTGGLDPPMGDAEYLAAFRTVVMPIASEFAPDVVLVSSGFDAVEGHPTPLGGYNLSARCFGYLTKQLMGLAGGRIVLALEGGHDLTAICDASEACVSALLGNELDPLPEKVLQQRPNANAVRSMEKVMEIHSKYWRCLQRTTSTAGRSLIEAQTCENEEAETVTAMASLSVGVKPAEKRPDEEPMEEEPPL

Compound | IC50 [1] [µM] | IC50 [2] [µM] | IC50 [3] [µM] | IC50 [4] [µM] | IC50 [5] [µM] | other results
COc1ccc(C(=O)N[C@H](COc2ccc(CC(=O)Nc3ccccc3N)cc2)Cc2c[nH]c3ccccc23)cc1 | > 20 | > 20 | > 20 | > 10 | > 20 | 
COc1ccc(C(=O)N[C@@H](Cc2c[nH]c3ccccc23)C(=O)NCCCCCC(=O)Nc2ccccc2N)cc1 | 0.296 | 0.0586 |  |  | 0.0429 | 
COc1ccc(C(=O)N[C@@H](Cc2c[nH]c3ccccc23)C(=O)NCCCCCC(=O)Nc2cc(-c3ccccc3)ccc2N)cc1 | 0.49 | 0.0555 |  |  | 5.63 | IC50 [6]: > 20 µM; IC50 [7]: > 20 µM; IC50 [8]: > 20 µM; IC50 [9]: > 20 µM
COc1ccc(C(=O)N[C@@H](Cc2c[nH]c3ccccc23)C(=O)Nc2ccc(C(=O)Nc3ccccc3N)cc2)cc1 | 0.441 | 0.0496 | 2.14 | 0.85 | 0.227 | 
COc1ccc(C(=O)N[C@@H](Cc2c[nH]c3ccccc23)C(=O)NCc2ccc(C(=O)Nc3cc(-c4cccs4)ccc3N)cc2)cc1 | 0.32 | 0.0588 |  |  | 8.01 | IC50 [10]: > 20 µM; IC50 [6]: > 20 µM; IC50 [7]: > 20 µM; IC50 [8]: > 20 µM; IC50 [9]: > 20 µM
CN(C)c1ccc(C(=O)N[C@@H](Cc2c[nH]c3ccccc23)C(=O)NCc2ccc(C(=O)Nc3ccccc3N)cc2)cc1 |  |  | 2.38 | 1.51 |  | 
COc1ccc(C(=O)N[C@H](COc2ccc(/C=C/C(=O)Nc3ccccc3N)cc2)Cc2c[nH]c3ccccc23)cc1 | 0.217 | 0.284 |  |  | 0.261 | 
Nc1ccccc1NC(=O)c1ccc(CNC(=O)[C@H](Cc2c[nH]c3ccccc23)NC(=O)c2cnccn2)cc1 |  |  | 5.85 | 1.02 |  | 
COc1ccc(C(=O)N[C@@H](Cc2c[nH]c3ccccc23)C(=O)NCc2ccc(C(=O)Nc3cc(-c4ccccc4)ccc3N)cc2)cc1 | 0.311 | 0.0584 |  |  | 30.9 | IC50 [10]: > 20 µM; IC50 [6]: > 20 µM; inhibition [11]: Active; IC50 [12]: 14 µM; inhibition [13]: Active; Activity [14]: inactive; IC50 [7]: > 20 µM; Activity [15]: inactive; Activity [16]: inactive; IC50 [8]: > 20 µM; IC50 [9]: > 20 µM
COc1ccc(C(=O)N[C@H](CNCc2ccc(C(=O)Nc3ccccc3N)cc2)Cc2c[nH]c3ccccc23)cc1 | 0.0212 | 0.0299 |  |  | 0.223 | 
Nc1ccccc1NC(=O)c1ccc(CNC(=O)[C@H](Cc2c[nH]c3ccccc23)NC(=O)c2ccc(C(F)(F)F)cc2)cc1 |  |  | 3.09 | 1.98 |  | 
COc1ccc(C(=O)N[C@@H](Cc2c[nH]c3ccccc23)C(=O)NCCCCCC(=O)Nc2ccc(F)cc2N)cc1 | 0.908 | 0.511 |  |  | 0.11 | IC50 [17]: > 100 µM; IC50 [18]: > 100 µM; IC50 [19]: > 100 µM
Nc1ccccc1NC(=O)c1ccc(CNC(=O)[C@H](Cc2c[nH]c3ccccc23)NC(=O)c2ccco2)cc1 |  |  | 2.4 | 0.91 |  | 
O=C(CCCCCCC(=O)Nc1ccccc1)NO [VORINOSTAT] |  |  |  |  |  | Activity [20]: 21.23 g
Nc1ccccc1NC(=O)c1ccc(CNC(=O)[C@H](Cc2c[nH]c3ccccc23)NC(=O)c2ccccn2)cc1 |  |  | 6.09 | 1.61 |  | 
COc1ccc(C(=O)N[C@@H](Cc2c[nH]c3ccccc23)C(=O)NCCCCCC(=O)Nc2cc(-c3cccs3)ccc2N)cc1 | 0.337 | 0.048 |  |  | 3.57 | IC50 [6]: > 20 µM; IC50 [17]: > 100 µM; IC50 [7]: > 20 µM; IC50 [18]: > 100 µM; IC50 [19]: > 100 µM; IC50 [8]: > 20 µM; IC50 [9]: > 20 µM
COc1ccc(C(=O)N[C@H](COc2ccc(C(=O)Nc3ccccc3N)cc2)Cc2c[nH]c3ccccc23)cc1 | 0.111 | 0.0147 |  |  | 0.09 | 
Nc1ccccc1NC(=O)c1ccc(CNC(=O)[C@H](Cc2c[nH]c3ccccc23)NC(=O)c2cccs2)cc1 |  |  | 1.74 | 0.78 |  | 
COc1ccc(C(=O)N[C@@H](Cc2c[nH]c3ccccc23)C(=O)NCc2ccc(C(=O)Nc3ccc(F)cc3N)cc2)cc1 | 0.179 | 0.171 |  |  | 0.243 | 
COc1ccc(C(=O)N[C@@H](Cc2c[nH]c3ccccc23)C(=O)Nc2ccc(C(=O)Nc3cc(-c4cccs4)ccc3N)cc2)cc1 | 0.314 | 0.0365 |  |  | 62.5 | 
COc1ccc(C(=O)N[C@@H](Cc2c[nH]c3ccccc23)C(=O)Nc2ccc(C(=O)Nc3ccc(F)cc3N)cc2)cc1 | 0.121 | 0.0917 |  |  | 0.167 | 
